Measurements: patent publication US12509439B2, “Anti-malarial agents” (UNIVERSITY OF KENTUCKY RESEARCH FOUNDATION, priority 2020, dated 2025)

What was measured:
[1] = molecular target: T1, PfATP-4 (Plasmodium falciparum, UniProt A0A143ZZK9); experiment: Effect on cytosolic [Na+] in saponin-isolated Plasmodium falciparum (sodium flux assay, SBFI); format: cell-based; conditions: SBFI-loaded 3D7 parasites, compound at 1 μM
T1 construct: Saponin-isolated parasites at a density of 1.4-1.8×10^8 cells/mL; endogenous in cells
Description: The ability of compounds of the invention to function as inhibitors of the Na+/H+-ATPase, which regulates parasite cytosolic sodium concentration has been tested in the following assay. Their effect on cytosolic sodium can be measured using a sodium flux assay (Biochemical characterization and chemical inhibition of PfATP4-associated Na+-ATPase activity in Plasmodium falciparum membranes. Rosling J. E. O. et al., 2018, J. Biol. Chem., 293: 13397). Saponin-isolated parasites at a density of 1.4-1.8×10^8 cells/mL, were suspended in bicarbonate-free RPMI1640 supplemented with 20 mM D-glucose, 0.2 mM hypoxanthine, 25 mM HEPES and 25 mg/L gentamycin sulfate (pH 7.10), then treated with sodium-binding benzofuran isophthalate acetoxymethyl ester ([…]) and Pluronic F-127 (0.01% w/v) for 20 min at 37° C. The dye-loaded cells were washed twice (12,000 g, 0.5 min) in bicarbonate-free RPMI then incubated for a further 20 min at 37° C. to allow for complete de-esterification of the dye before being resuspended at a final cell concentration of 1.5-2.5×10^7 cells/mL in standard saline. […] [Na+] was determined according to reference to a calibration curve of the 340/380 nm fluorescence ratio as described previously (In situ calibration and [H+] sensitivity of the fluorescent Na+ indicator SBFI. Diarra A. et al., 2001, Am. J. Physiol. Cell Physiol., 280: 1623).

[2] = PK parameters in rat (IV and PO); format: in vivo; conditions: for PK parameters (rat): F: 1 mg/kg IV and 3 mg/kg PO; for clearance / half-life: Sprague Dawley, plasma, IV arm, 1 mg/kg; for clearance: read-out: PK parameters (rat): Cl; for half-life: read-out: PK parameters (rat): t1/2
Protocol: Swiss Albino male mice or Sprague Dawley rats (TCGLS, India) were kept under a 12/12 h light/dark cycle, 22±2° C. temp, 50±20% RH with free access to food and water ad libitum. Mice were selected randomly/based on body weight/age and fasted for 4 h before dosing and until 2 h after dosing. Three mice were used per route of administration. For IV determination (1 mg/kg, dose volume 5 ml/kg) the dose was administered by injection into the lateral tail vein (rats are anaesthetized using 3% v/v isoflurane: oxygen mixture). For PO determination (3 mg/kg, dose volume 10 ml/kg) the dose was administered by oral gavage in conscious animals.
Blood samples were taken (mice 50 μL, rat 100 μL) at regular timepoints from the saphenous vein (conscious restrained animals) and collected into heparinized capillary tubes and transferred into 0.5 mL microcentrifuge tubes. Samples were processed by centrifugation at 1640 g for 10 min at +4° C. within 30 min of collection and stored at −20° C. until bioanalysis. All samples were mixed with ice-cold acetonitrile containing an internal standard, centrifuged at 4000 rpm for 15 min at 15° C. Supernatant was then half diluted in water and analysed by LCMS/MS analysis to determine analyte peak area/IS peak area (the ratio). Concentration (plasma) of the compounds of the invention was determined by reference to a calibration curve. Pharmacokinetic parameters (Cmax, Tmax, AUC, t1/2, CL, Vd, BA) were calculated using WinNonLin, using non-compartmental analysis (Phoenix, Version 6.3). The pharmacokinetic parameters for compounds shown in Table 2 support that compounds of the invention have pharmacokinetic properties associated with treatment of malaria via the oral route and that compounds have substantially longer half-lives than the reference compound.

[3] = system: Plasmodium falciparum (3D7); experiment: In-vitro potency against P. falciparum (3D7 strain), SYBR Green growth inhibition; format: cell-based; conditions: P. falciparum 3D7, asexual intraerythrocytic stage, SYBR Green fluorescence
Protocol: Cultures of the widely-used malaria reference strain of chloroquine-sensitive Plasmodium falciparum (3D7) were maintained in a 1.25% suspension of human red blood cells cultured in RPMI 1640 medium (pH 7.3) supplemented with 0.5% Albumax II (Gibco Life Technologies, San Diego, CA), 12 mM sodium bicarbonate, 0.2 mM hypoxanthine, and 20 mg/L gentamicin at 37° C., in an atmosphere of 1% O2, 3% CO2 with a balance of nitrogen (Human malaria parasites in continuous culture. Trager W et al., 1976, Science, 193: 673-675). Growth inhibition was quantified using a fluorescence assay utilising the binding of SYBR Green (Novel, rapid, and inexpensive cell-based quantification of antimalarial drug efficacy. Bennett T. N. et al., 2004, Antimicrob. Agents Chemother., 48: 1807-1810) to double stranded DNA, which emits a fluorescent signal at 528 nm after excitation at 485 nm. Mefloquine was used as a drug control to monitor the quality of the assay (Z′=0.6 to 0.8, where Z′ is a measure of the discrimination between the positive and negative controls on a screen plate). Hits were confirmed by full-potency curves with dose-response curves determined from a minimum of 3 independent experiments. Compound bioactivity was expressed as EC50, the effective concentration of compound causing 50% parasite death. All data were processed using IDBS ActivityBase. Raw data was converted into percent inhibition through linear regression by setting the high inhibition control as 100% and the no inhibition control as 0%. Quality control criteria for passing plates were as follows: z′>0.5, S:B>3, % CV(no inhibition control)<15. The formula used to calculate z′ is
Curve fitting was carried out using the following 4 parametric equation:
where A=% inhibition at bottom, B=% inhibition at top, C=EC50, D=slope, x=inhibitor concentration and y=% inhibition. If curve definition was poor, B was fixed to 100.

[4] = Pharmacokinetic profile in dog (IV); conditions: in vivo; for clearance: read-out: Cl (dog); for half-life: read-out: t½ (dog) (converted)
[5] = system: malaria infection; conditions: human volunteers, single dose of 600 milligrams; cited from earlier work
[6] = phase 1a clinical trials; cited from earlier work

T1 sequence (A0A143ZZK9 whole entry): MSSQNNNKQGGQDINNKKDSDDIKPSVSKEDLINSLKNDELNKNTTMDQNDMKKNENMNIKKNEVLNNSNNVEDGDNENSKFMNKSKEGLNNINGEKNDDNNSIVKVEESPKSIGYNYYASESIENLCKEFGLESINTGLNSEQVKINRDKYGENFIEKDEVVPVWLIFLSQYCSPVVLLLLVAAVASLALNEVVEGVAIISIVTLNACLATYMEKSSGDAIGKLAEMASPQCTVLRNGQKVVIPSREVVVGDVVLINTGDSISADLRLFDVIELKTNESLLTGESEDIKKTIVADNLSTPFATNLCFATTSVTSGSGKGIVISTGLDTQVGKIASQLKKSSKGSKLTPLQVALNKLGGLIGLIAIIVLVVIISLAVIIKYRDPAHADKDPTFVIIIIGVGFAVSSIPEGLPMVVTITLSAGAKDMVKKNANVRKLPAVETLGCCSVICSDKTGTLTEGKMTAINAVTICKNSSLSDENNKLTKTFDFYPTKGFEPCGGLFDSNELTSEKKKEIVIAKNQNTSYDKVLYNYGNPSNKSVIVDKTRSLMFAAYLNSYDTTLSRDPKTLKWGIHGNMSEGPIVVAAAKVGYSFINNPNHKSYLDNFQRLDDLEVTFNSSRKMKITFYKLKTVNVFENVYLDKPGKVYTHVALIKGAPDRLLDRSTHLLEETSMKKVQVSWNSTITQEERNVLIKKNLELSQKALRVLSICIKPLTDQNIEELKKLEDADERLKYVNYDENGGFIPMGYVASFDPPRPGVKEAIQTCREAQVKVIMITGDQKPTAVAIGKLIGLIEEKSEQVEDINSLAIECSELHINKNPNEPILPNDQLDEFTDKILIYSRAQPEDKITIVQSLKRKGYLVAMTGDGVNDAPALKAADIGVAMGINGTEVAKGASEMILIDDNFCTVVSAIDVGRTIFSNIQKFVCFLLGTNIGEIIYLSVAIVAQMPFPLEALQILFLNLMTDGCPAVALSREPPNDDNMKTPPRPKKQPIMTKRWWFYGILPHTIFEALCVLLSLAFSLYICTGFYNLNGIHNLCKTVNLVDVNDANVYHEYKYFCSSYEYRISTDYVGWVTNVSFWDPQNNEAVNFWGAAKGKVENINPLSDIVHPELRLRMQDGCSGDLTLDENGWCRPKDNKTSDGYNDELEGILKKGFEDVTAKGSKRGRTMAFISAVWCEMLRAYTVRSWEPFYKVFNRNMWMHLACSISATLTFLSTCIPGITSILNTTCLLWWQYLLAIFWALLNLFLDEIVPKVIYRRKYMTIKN

clearance ([4]; IV at dose 3 mg/kg) | half-life ([4]; IV at dose 3 mg/kg) | Compound | Effect on cytosolic [Na+] [1] | PK parameters (rat): F [2] | clearance [2] | half-life [2] | EC50 [3] | clearance ([4]; IV at 1 mg/kg) | half-life ([4]; IV at 1 mg/kg) | Parasitological cure [5] | Metabolite formation in human pharmacokinetic studies [6]
– | – | N#Cc1cc(NC(=O)[C@H]2c3ccccc3C(=O)N(CC(F)(F)F)[C@@H]2c2ccc(OC3CC3)nc2)ccc1F (single isomer, unassigned) [(1a)] | increase of cytosolic sodium concentration | F = 107% | 1 mL/min/kg | 26 h | 19 nM | 0.26 mL/min/kg | 41 h | – | –
– | – | N#Cc1cc(NC(=O)[C@H]2c3ccccc3C(=O)N(CC(F)(F)F)[C@@H]2c2cnc(C(F)(F)F)nc2)ccc1F [(9a), (3S,4S)—N-(3-cyano-4-fluorophenyl)-1-oxo-2-(2,2,2-trifluoroethyl)-3-(2-(trifluoromethyl)pyrimidin-5-yl)-1,2,3,4-tetrahydroisoquinoline-4-carboxamide] | increase of cytosolic sodium concentration | F = 65% | 1.33 mL/min/kg | 22 h | 103 nM | – | – | – | –
3 mL/min/kg | 10 h | N#Cc1cc(NC(=O)[C@H]2c3ccccc3C(=O)N(CC(F)(F)F)[C@@H]2c2cccnc2)ccc1F [(+) SJ-733, 4-Isoquinolinecarboxamide, N-(3-cyano-4-fluorophenyl)-1,2,3,4-tetrahydro-1-oxo-3-(3-pyridinyl)-2-(2,2,2-trifluoroethyl)-, (3S,4S)-, reference compound] | – | F = 75% | 13.3 mL/min/kg | 7.7 h | 145 nM | – | – | parasitological cure was not achieved | significant formation of an inactive N-oxide metabolite
